We go through one compound from patent US20230256036A1, “SERPIN PRODUCTION” (SOCIETE DES PRODUITS NESTLE S.A., priority 2020, published 2023).

Structures are written as SMILES.

Experiment [1] has as its system serpin protein in B. longum NCC 2705. Description: Serpin protein level by ELISA in B. longum NCC 2705 grown on HMOs. It is filed as cell-based, Bifidobacterium longum subsp longum. The following applies: HMO 0.5 wt %, 16 h, FIG. 1. The protocol:
(§1) B. longum strain CNCM I-2618 (NCC 2705) was grown in Biolector (growth conditions—anaerobic, 37° C.) in MRS+5 mM L-cysteine (MRSc) base without sugar, to which different commercially available Human Milk Oligosaccharides (HMOs) were added at a concentration of 0.5 wt %.
(§2) 48-well microtiter plate with pH sensor and dissolved oxygen (DO) sensor were used to culture the strains in Biolector (m2p-labs Aachen, Germany). It was continuously shaken to prevent bacteria aggregation for 16 h. Cultures were harvested by centrifugation and supernatant was removed. Pellet was resuspended in PBS supplemented with halt protease inhibitor (Sigma) and lysed using glassbeads. Lysate containing both soluble and insoluble material was then collected. Total protein content was measured using Pierce BCA kit (Thermofisher) and serpin protein concentration was determined using ELISA.

For experiment [2], the system named is serpin in Bifidobacterium longum subsp longum. Description: Serpin induction by LNT in culture medium containing glucose. It is filed as cell-based. To be noted: only when the glucose is present at levels allowing its depletion during fermentation. The source says:
LNT may be added to a conventional culture medium comprising up to 8 wt %, preferably up to 6 wt %, for example up to 4 wt %, of another sugar suitable to sustain B. longum growth, such as, but not limited to, glucose. […] Preferably the culture medium at the end of the fermentation contains less than 0.4 wt % glucose, such as from 0 wt % to 0.3 wt % glucose, for example from 0.02 wt % to 0.4 wt %, or from about 0.05 wt % to about 0.3 wt %. Conventional culture mediums suitable for growth of B. longum are well known to the person skilled in the art.

The test system of experiment [3] is B. longum subsp. longum strains. Description: Growth of B. longum subsp. longum strains on LNT as sole carbohydrate source. The format is cell-based, Bifidobacterium longum subsp longum. To be noted: 0.5% LNT in MRSc base without sugar, 16 h, all tested B. longum subsp. longum strains. The protocol:
as §1, §2
The serpin encoding gene and its surrounding is highly conserved within the B. longum subsp. longum species. Strains of B. longum subsp. longum were selected to represent the entire span of the genetic phylogenetic tree (Table 2). All strains were cultured in Biolector (according to example 1) in a MRSc base without sugar, to which 0.5% glucose or 0.5% of LNT was added. Cultures were grown for 16 h and harvested. Obtained pellets were further analyzed for total and serpin protein content (see example 1).

The test system of experiment [4] is serpin protein in B. longum subsp. longum strains. Description: Serpin protein level by ELISA in B. longum subsp. longum strains grown on glucose or LNT. The format is cell-based, Bifidobacterium longum subsp longum. To be noted: 0.5% LNT vs 0.5% glucose, 16 h, all tested strains, FIG. 2. For orientation: In an ELISA, binding on a coated surface is turned into a signal by an enzyme label.
Procedure: 48-well microtiter plate with pH sensor and dissolved oxygen (DO) sensor were used to culture the strains in Biolector [MUT]-labs Aachen, Germany). It was continuously shaken to prevent bacteria aggregation for 16 h. Cultures were harvested by centrifugation and supernatant was removed. Pellet was resuspended in PBS supplemented with halt protease inhibitor (Sigma) and lysed using glassbeads. Lysate containing both soluble and insoluble material was then collected. Total protein content was measured using Pierce BCA kit (Thermofisher) and serpin protein concentration was determined using ELISA. […] All strains were cultured in Biolector (according to example 1) in a MRSc base without sugar, to which 0.5% glucose or 0.5% of LNT was added. Cultures were grown for 16 h and harvested. Obtained pellets were further analyzed for total and serpin protein content (see example 1).

Experiment [5] has as its system B. longum strain CNCM I-2618 (NCC 2705). In words: Growth of B. longum NCC 2705 in Biolector on MRSc base without sugar plus HMO. The format is cell-based, Bifidobacterium longum subsp longum. To be noted: HMO 0.5 wt % in MRSc base without sugar, anaerobic, 37° C., 16 h. The procedure: as §1, §2

Regarding `CC(=O)N[C@H]1[C@H](O[C@H]2[C@@H](O)[C@@H](CO)O[C@@H](O[C@H]3[C@H](O)[C@@H](O)C(O)O[C@@H]3CO)[C@@H]2O)O[C@H](CO)[C@@H](O)[C@@H]1O[C@@H]1O[C@H](CO)[C@H](O)[C@H](O)[C@H]1O` (some centres unmarked) [LNT, Lacto-N-tetraose], the “levels of serpin protein in B. longum NCC 2705” value in experiment [1] is recorded as “significantly increase”. Further, the “induction of serpin production when glucose is present” value in experiment [2] is “can induce production of serpin”. In experiment [3], the “growth on LNT as sole carbohydrate source” value is “able to grow”. The “serpin protein levels in B. longum subsp. longum strains” value in experiment [4] is “increased”. The “support of growth of B. longum NCC 2705” value in experiment [5] is recorded as “the only one supporting the growth”.
